Results published in ChEMBL document CHEMBL4665860, “Focused structure-activity relationship profiling around the 2-phenylindole scaffold of a cannabinoid type-1 receptor agonist-positive allosteric modulator: site-III aromatic-ring congeners with enhanced activity and solubility” (Bioorg Med Chem, 2020).
In brackets after ≈: the same amount, converted by molar mass.

Tests used:
[1] = target: T1, Cannabinoid receptor 1 (Homo sapiens, UniProt P21554); assay: Positive allosteric modulatory activity at human CB1 receptor expressed in CHO-K1 cells assessed as increase in CP55940-induced beta-arrestin recruitment preincubated 90 mins followed by CP55940 addition and measured after 60 mins by PathHunter assay relative to CP55940; format: cell-based
T1 sequence (P21554 whole entry): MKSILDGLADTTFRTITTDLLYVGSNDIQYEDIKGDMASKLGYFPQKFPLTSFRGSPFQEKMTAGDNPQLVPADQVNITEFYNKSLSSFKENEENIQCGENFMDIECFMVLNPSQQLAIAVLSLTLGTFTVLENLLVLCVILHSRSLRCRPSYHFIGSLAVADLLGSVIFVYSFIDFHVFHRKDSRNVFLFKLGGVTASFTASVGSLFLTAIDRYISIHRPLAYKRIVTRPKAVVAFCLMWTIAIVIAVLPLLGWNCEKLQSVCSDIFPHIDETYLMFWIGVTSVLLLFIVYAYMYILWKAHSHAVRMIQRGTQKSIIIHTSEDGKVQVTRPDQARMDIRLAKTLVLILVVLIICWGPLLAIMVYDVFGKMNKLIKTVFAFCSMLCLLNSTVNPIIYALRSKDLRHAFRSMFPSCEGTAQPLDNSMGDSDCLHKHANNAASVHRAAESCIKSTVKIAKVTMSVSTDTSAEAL

[2] = target: T1, Cannabinoid receptor 1; assay: Positive allosteric modulatory activity at human CB1 receptor expressed in CHO-K1 cells assessed as increase in CP55940-induced inhibition of forskolin-stimulated cAMP production preincubated for 30 mins followed by CP55940 addition and measured after 60 mins by Hit-hunter assay relative to control; format: functional, cell-based
[3] = target: T1, Cannabinoid receptor 1; assay: Positive allosteric modulatory activity at human CB1 receptor expressed in CHO-K1 cells assessed as increase in CP55940-induced inhibition of forskolin-stimulated cAMP production preincubated for 30 mins […] by Hit-hunter assay; format: functional, cell-based
[4] = target: T1, Cannabinoid receptor 1; assay: Positive allosteric modulatory activity at human CB1 receptor expressed in CHO-K1 cells assessed as increase in CP55940-induced beta-arrestin recruitment […] and measured after 60 mins by PathHunter assay; format: cell-based
[5] = physchem; details: PBS, pH 7.4
[6] = filed as positive allosteric modulator

| Compound | Emax [1] [%] | Emax [2, 6] [%] | EC50 [3] [nM] | EC50 [4] [nM] | Emax [1, 6] [%] | solubility kinetic at 2 h [5] [µM] | Emax [2] [%] |
| --- | --- | --- | --- | --- | --- | --- | --- |
| O=[N+]([O-])CC(Cc1ccccc1)c1c(-c2ccccc2)[nH]c2ccccc12 (stereo not drawn) | 0 | 115 | 420 | > 10000 |  |  |  |
| O=[N+]([O-])CC(c1ccccc1Cl)c1c(-c2ccccc2)[nH]c2ccccc12 (stereo not drawn) |  | 75 | 18 | 1240 | 93.4 |  |  |
| O=[N+]([O-])CC(c1ccc(N2CCCCC2)cc1)c1c(-c2ccccc2)[nH]c2ccccc12 (stereo not drawn) |  | 125 | 476 | 2460 | 42.1 |  |  |
| O=[N+]([O-])CC(c1ccsc1)c1c(-c2ccccc2)[nH]c2ccccc12 (stereo not drawn) | 23.9 | 125 | 119 | 1610 |  |  |  |
| O=[N+]([O-])CC(c1ccccc1C(F)(F)F)c1c(-c2ccccc2)[nH]c2ccccc12 (stereo not drawn) |  | 86.2 | 557 | 792 | 68.1 |  |  |
| O=[N+]([O-])CC(c1cccc(Cl)c1)c1c(-c2ccccc2)[nH]c2ccccc12 (stereo not drawn) | 16 | 121 | 859 | 2980 |  |  |  |
| Cc1cccc(C(C[N+](=O)[O-])c2c(-c3ccccc3)[nH]c3ccccc23)c1 (stereo not drawn) | 23.8 | 116 | 662 | 1990 |  |  |  |
| COc1ccc(C(C[N+](=O)[O-])c2c(-c3ccccc3)[nH]c3ccccc23)cc1 (stereo not drawn) | 0 | 119 | 1180 | > 10000 |  |  |  |
| COc1ccccc1C(C[N+](=O)[O-])c1c(-c2ccccc2)[nH]c2ccccc12 (stereo not drawn) | 37 | 118 | 411 | 1870 |  |  |  |
| O=[N+]([O-])CC(c1ccc(F)cc1)c1c(-c2ccccc2)[nH]c2ccccc12 (stereo not drawn) |  |  |  | > 10000 |  |  |  |
| O=[N+]([O-])CC(c1ccc[nH]1)c1c(-c2ccccc2)[nH]c2ccccc12 (stereo not drawn) | 0.7 | 77.1 | 209 | > 10000 |  |  |  |
| O=[N+]([O-])CC(c1ccc2ccccc2c1)c1c(-c2ccccc2)[nH]c2ccccc12 (stereo not drawn) | 31.8 | 113 | 483 | 2340 |  |  |  |
| O=[N+]([O-])CC(c1ncco1)c1c(-c2ccccc2)[nH]c2ccccc12 (stereo not drawn) | 3.21 | 56.6 | 856 | > 10000 |  |  |  |
| Cn1cncc1C(C[N+](=O)[O-])c1c(-c2ccccc2)[nH]c2ccccc12 (stereo not drawn) | 0 | 46.1 | > 10000 | > 10000 |  |  |  |
| CC(C)(C)c1ccc(C(C[N+](=O)[O-])c2c(-c3ccccc3)[nH]c3ccccc23)cc1 (stereo not drawn) | 5.57 | 109 | 203 | > 10000 |  |  |  |
| Cc1ccc2c(C(C[N+](=O)[O-])c3ncco3)c(-c3ccccc3)[nH]c2c1 (stereo not drawn) | 14.5 | 67.2 | 261 | > 10000 |  | 12.5 (≈ 4.34 µg/mL) |  |
| O=[N+]([O-])CC(c1ccccc1N1CCCC1)c1c(-c2ccccc2)[nH]c2ccccc12 (stereo not drawn) | 7.28 | 75.9 | 1820 | > 10000 |  |  |  |
| O=[N+]([O-])CC(c1c(-c2ccccc2)[nH]c2ccccc12)C1CCCCC1 (stereo not drawn) | 26.8 | 117 | 495 | 1900 |  |  |  |
| Cn1ccnc1C(C[N+](=O)[O-])c1c(-c2ccccc2)[nH]c2ccccc12 (stereo not drawn) | 0 | 52.7 | 533 | > 10000 |  |  |  |
| O=[N+]([O-])CC(c1nccs1)c1c(-c2ccccc2)[nH]c2ccccc12 (stereo not drawn) | 32.6 | 83.7 | 192 | 331 |  |  |  |
| O=[N+]([O-])CC(c1cccs1)c1c(-c2ccccc2)[nH]c2ccccc12 (stereo not drawn) | 36.1 | 116 | 31 | 584 |  |  |  |

| Compound | Emax [1] [%] | Emax [2, 6] [%] | EC50 [3] [nM] | EC50 [4] [nM] | Emax [1, 6] [%] | solubility kinetic at 2 h [5] [µM] | Emax [2] [%] |
| --- | --- | --- | --- | --- | --- | --- | --- |
| O=[N+]([O-])CC(c1ccc(Cl)cc1)c1c(-c2ccccc2)[nH]c2ccccc12 (stereo not drawn) | 0 | 74.8 | 1320 | > 10000 |  |  |  |
| Cc1ccc2c(C(C[N+](=O)[O-])c3nccs3)c(-c3ccccc3)[nH]c2c1 (stereo not drawn) |  | 98.5 | 50 | 163 | 80.6 | 3.13 (≈ 1.14 µg/mL) |  |
| Cc1ccccc1C(C[N+](=O)[O-])c1c(-c2ccccc2)[nH]c2ccccc12 (stereo not drawn) |  | 81.7 | 3 | 57 | 68.5 |  |  |
| Cc1ccc(C(C[N+](=O)[O-])c2c(-c3ccccc3)[nH]c3ccccc23)cc1 (stereo not drawn) | 0 | 119 | 1440 | > 10000 |  |  |  |
| O=[N+]([O-])CC(c1c(Cl)cccc1Cl)c1c(-c2ccccc2)[nH]c2ccccc12 (stereo not drawn) | 3.72 | 128 | 571 | > 10000 |  |  |  |
| O=[N+]([O-])CC(c1cccc(C(F)(F)F)c1)c1c(-c2ccccc2)[nH]c2ccccc12 (stereo not drawn) | 0 | 151 | 127 | > 10000 |  |  |  |
| O=[N+]([O-])CC(c1ccc(C(F)(F)F)cc1)c1c(-c2ccccc2)[nH]c2ccccc12 (stereo not drawn) | 0 | 65.1 | > 10000 | > 10000 |  |  |  |
| O=[N+]([O-])CC(c1cccc(N2CCCC2)c1)c1c(-c2ccccc2)[nH]c2ccccc12 (stereo not drawn) | 6.69 | 110 | 423 | > 10000 |  |  |  |
| O=[N+]([O-])CC(c1cccc2ccccc12)c1c(-c2ccccc2)[nH]c2ccccc12 (stereo not drawn) | 0 | 62.2 | > 10000 | > 10000 |  |  |  |
| O=[N+]([O-])CC(c1ccccc1F)c1c(-c2ccccc2)[nH]c2ccccc12 (stereo not drawn) |  |  |  | 782 | 56 |  |  |
| O=[N+]([O-])CC(c1ccc(N2CCCC2)cc1)c1c(-c2ccccc2)[nH]c2ccccc12 (stereo not drawn) | 0 | 97.4 | 618 | > 10000 |  |  |  |
| O=[N+]([O-])CC(c1ccc(N2CCOCC2)cc1)c1c(-c2ccccc2)[nH]c2ccccc12 (stereo not drawn) | 0 | 87.6 | > 10000 | > 10000 |  |  |  |
| COc1cccc(C(C[N+](=O)[O-])c2c(-c3ccccc3)[nH]c3ccccc23)c1 (stereo not drawn) | 4.96 | 131 | 664 | > 10000 |  |  |  |
| Cn1cnc(C(C[N+](=O)[O-])c2c(-c3ccccc3)[nH]c3ccccc23)c1 (stereo not drawn) | 0.667 |  | > 10000 | > 10000 |  |  | 34.4 |
| O=[N+]([O-])CC(c1ccccc1)c1c(-c2ccccc2)[nH]c2ccccc12 (stereo not drawn) |  | 99.6 |  |  | 54.1 |  |  |
| O=[N+]([O-])CC(c1cccc(F)c1)c1c(-c2ccccc2)[nH]c2ccccc12 (stereo not drawn) | 15.7 | 118 |  | > 10000 |  |  |  |
| O=[N+]([O-])CC(c1ccco1)c1c(-c2ccccc2)[nH]c2ccccc12 (stereo not drawn) | 28.8 | 99.8 | 245 | 655 |  |  |  |
| Cc1ccc2c(C(C[N+](=O)[O-])c3cccs3)c(-c3ccccc3)[nH]c2c1 (stereo not drawn) |  |  | 33 | 379 | 78.2 | 1.56 (≈ 0.565 µg/mL) |  |
| O=[N+]([O-])CC(c1ccoc1)c1c(-c2ccccc2)[nH]c2ccccc12 (stereo not drawn) | 12.9 | 144 | 513 | > 10000 |  |  |  |
| O=[N+]([O-])CC(c1ccc(-c2ccccc2)cc1)c1c(-c2ccccc2)[nH]c2ccccc12 (stereo not drawn) | 5 |  | > 10000 | > 10000 |  |  | 25.5 |
